Data set [1] relates to JFCR39 panel of 39 human tumor cell lines. The data set can be described thus: JFCR39 panel growth inhibition, panel statistics. The class given is cell-based. The conditions noted are these: for GI50: Homo sapiens. The procedure: JFCR39 drug discovery system was used to measure the growth inhibitory activities and identify the target of KTC1101. The JFCR39 panel consists of 39 cell lines seeded in 96-well plates. After 48-h treatment with KTC1101, cell growth was measured using the sulforhodamine B assay. […] The deviation of log GI50 for each cell line from the average log GI50 across the JFCR39 panel was plotted as a fingerprint. MG-MID (mean of Log GI50 values) represents the average log GI50 for all 39 cell lines. The most sensitive and least sensitive cell lines were identified by calculating the difference in their log GI50 values (Range) and the difference between the most sensitive cell line and the average GI50 on the JFCR39 panel (Delta). The fingerprint of KTC1101 was compared with the fingerprints of reference compounds in the database. The Pearson correlation coefficient (r) was calculated (n = 39).

Data set [2] concerns CCL5 and CXCL10. The data set is described as follows: qRT-PCR and ELISA of chemokines in B16 cells. It is filed as cell-based, mouse. The conditions noted are these: 48 h. The method, then: qRT-PCR was performed as previously described. RNA was isolated using Trizol and used to synthesize complementary DNA (cDNA) using a cDNA Synthesis Kit (GenStar), and RT-PCR was performed with aliquots of cDNA samples mixed with SYBR Green MasterMix (Applied Biosystems). Reactions were performed in triplicate.
We examined the secreted cytokines from B16 cells under both in vitro and in vivo conditions. For in vitro-cultured B16 cells, the cells were seeded into six-well plates and treated with either DMSO or a range of KTC1101 concentrations. After 48 h, the total cell count was determined, and the cell culture supernatant was collected for further analysis. For in vivo tumor tissues, the harvested tumor tissues were homogenized. Post-centrifugation, the supernatant was collected and used for protein quantification utilizing a BCA kit. The concentrations of murine CCL5 and CXCL10 in these supernatants were then quantified using specific ELISA kits, in accordance with the manufacturer's instructions.
On the technique in general: In qPCR the cycle at which signal appears reflects the starting amount.

Data set [3] deals with B16 tumor tissue gene expression. The data set is described as follows: RNA-Seq (DEGs, GSEA, GSVA, CIBERSORT) of B16 tumors after KTC1101. The class given is in vivo, mouse. The conditions noted are these: 100 mg/kg for 3 days. An excerpt:
Total RNA was isolated using TRIzol reagent.
Cell-type Identification by Estimating Relative Subsets of RNA Transcripts (CIBERSORT) was used to perform a deconvolution analysis of the gene expression matrix based on the principle of linear […]. The CIBERSORT algorithm, with a reference to 511 mouse gene signatures, categorized immune cell populations into seven groups and calculated composition scores: B cells including memory, naive, and plasma cells; CD8^+ T cells including memory, naive, and activated cells; CD4^+ T cells including memory, naive, follicular, Th1, Th2, and Th17 cells; DCs including activated and immature cells; the rest being mast cells, Tregs, and monocytes.

For data set [4], the system named is p-Akt, p-S6, Ki67. The data set can be described thus: H&E and immunohistochemical staining of xenograft tumors. It is filed as in vivo, mouse. The conditions noted are these: IHC, PC3 and TMD8 xenografts. The method, then: H&E and IHC staining were performed as previously described. H&E staining was used to detect pathological changes in morphology. For histological analysis, formalin-fixed, paraffin-embedded tumors were sectioned, and slides were deparaffinized using xylene (Thermo Fisher). Endogenous peroxidases were quenched with 3% hydrogen peroxide in methanol. Staining was performed using antibodies against phosphorylated Akt (Ser473), phosphorylated S6 (Ser235/236), or Ki67. Counterstaining was performed with Mayer’s hematoxylin (Dako). Slides were observed under an Olympus CX21 microscope and scanned with a high-resolution digital slide scanner (Pannoramic 250, 3DHistech) to capture images.

Data set [5] relates to CD8^+ T cells. The data set can be described thus: T cell suppression assay (CFSE). The class given is cell-based. The following applies: Mus musculus, 72 h, read-out: IC50 proliferation. The procedure: (§1) Spleens from naive mice were isolated and ground through 70-μm filters to generate a single-cell suspension. After RBC lysis, single-cell suspensions were stained with CD3, CD8, CD4, CD25 or CD127 antibodies. Viable CD8^+ T cells (CD3^+CD8^+), CD4^+ T cells (CD3^+CD4^+), and Tregs (CD3^+CD4^+CD25^+CD127^low/−) from single-cell suspensions were sorted by FACS. Then T cells were labelled with […] in pre-warmed PBS for 10 min at 37 °C. The CFSE-labelled T cells were seeded in 96-well plates pre-coated with 10 μg/mL CD3 and 1 μg/mL CD28 antibodies and cultured in 1640 media with 10% FBS, 1 mM Sodium Pyruvate (Thermo, 11,360,070), 50 μM β-ME and 100 IU/mL IL2, as well as different concentrations of KTC1101 or solvent control. After 72 h, cells were harvested and the CFSE signal was measured by flow cytometry. Cell growth rate was calculated by the percentage of live, proliferated cell number at each drug concentration vs. solvent control.

For data set [6], the system named is CD4^+ T cells. The data set can be described thus: T cell suppression assay (CFSE). It is filed as cell-based. The conditions noted are these: Mus musculus, 72 h, read-out: IC50 proliferation. The procedure:
as §1

In data set [7] the test system is BALB/c mice. The data set can be described thus: Acute toxicity study. The class given is in vivo. The following applies: symbols O/X not defined. The procedure:
(§2) All mice care and experimental protocols were approved by the Ethical Committee of Tianjin Medical University (permit number: TMUaMEC 2023036). Preliminary testing was conducted on 6 groups of BALB/c mice (half male, half female, 18–22 g), fasted but not water-deprived for 12 h, and administered different doses of KTC1101 (200 to 6400 mg/kg). […] The LD50 was calculated based on the doses causing 0% and 100% mortality in animals. Subsequent testing was done using doses determined from the preliminary study. Each dose was administered to a single animal, with a 72-h interval between dosages. The administration continued until one of the following criteria was met: (a) three consecutive animals survived; (b) a transition from survival to death occurred in 5 out of 6 consecutive animals; (c) at least four animals were tested after the first transition, with an estimated LD50 range exceeding the critical value (2.5 times). The LD50 and its confidence interval were calculated, and the maximum likelihood method was used to determine the LD50 value using the AOT425StatPgm software.

Data set [8] can be described thus: Acute toxicity study. The class given is in vivo. The following applies: both sexes, mouse, in vivo, oral; BALB/c mice, acute toxicity. The method, then:
as §2

Each structure is given as a SMILES string. pIC50: −log10 of the molar value. Like-named read-outs stand apart in the source and are kept apart here.

The term GI50 denotes the concentration at which growth is held to half of that of the control. What is called LD50 is the dose at which mortality reaches 50%. The low end stands for a more toxic substance, the high end for a less toxic substance.

Turning to `COc1cc(N)cc2c1nc(C(F)F)n2-c1nc(N2CCCOCC2)nc(N2CCOCC2)n1` [KTC1101, 2-(difluoromethyl)-4-methoxy-1-(4-morpholino-6-(1,4-oxazepan-4-yl)-1,3,5-triazin-2-yl)-1H-benzo[d]imidazol-6-amine], the GI50 is 23.4 nM in data set [1] (JFCR39 panel, read-out: mean GI50 across all 39 cell lines) and 23.4 nM in data set [1] (all 39 cell lines, read-out: MG-MID (mean of Log GI50 values) (converted)). Moreover, the “fold lower mean GI50 than Copanlisib” value in data set [1] (JFCR39 panel) came out at 5.7 fold. Also, in data set [1] (JFCR39 panel), the “fold lower mean GI50 than ZSTK474” value stood at 13.7 fold. Moreover, the “expression levels of CCL5 and CXCL10” value in data set [2] is “significantly stimulated”. For the same compound, the “immune-related pathways (GSEA, GSVA)” value in data set [3] is “prominently upregulated”. Also, the “Ki67 expression in tumor tissues” value in data set [4] is listed as “notable reduction in Ki67 expression”. For the same compound, in data set [4], the “phosphorylation of AKT in tumor tissues” value is “decreased phosphorylation of AKT”. Also, the values for the pIC50 in data set [5] and in data set [6] were 7.50 and 7.79, respectively. In addition, the Score result in data set [7] (real dose 1750 mg/kg) is given as “OOO”; in data set [7] (real dose 2275 mg/kg), “XXX”. In addition, the LD50 at 7 days in data set [8] came out at 2140 mg/kg.
